# Source: PubChem BioAssay AID212 (DTP/NCI, 2004)
# Several values for one entry are separate records, joined by “and”; a condition that tells them apart may be missing. Identical values can stand only once. Records with an inconclusive call do not appear.
# Test system: BDF1 mice, colon carcinoma 38 sc, T/C %
# Assay: NCI In Vivo Anticancer Drug Screen. Data for tumor model Colon Carcinoma 38 (subcutaneous) in B6D2F1 (BDF1) mice
# Outline: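 Ratio of survival or tumor size, compound-treated animals relative to vehicle controls, in tumor-bearing mice.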
# [1] = endpoint: median tumor weight (est.), dose: 100.0 mg/kg/injection, schedule: Q07DX002 (ip), vehicle: saline with Tween-80, higher = larger tumour
# [2] = endpoint: median tumor weight (est.), dose: 200.0 mg/kg/injection, schedule: Q07DX002 (ip), vehicle: saline with Tween-80, higher = larger tumour
# [3] = endpoint: median tumor weight (est.), dose: 25.0 mg/kg/injection, schedule: Q07DX002 (ip), vehicle: saline, higher = larger tumour
# [4] = endpoint: median tumor weight (est.), dose: 50.0 mg/kg/injection, schedule: Q07DX003 (ip), vehicle: saline, higher = larger tumour
# [5] = endpoint: median tumor weight (est.), dose: 200.0 mg/kg/injection, schedule: Q07DX003 (ip), vehicle: saline, higher = larger tumour
# [6] = endpoint: median tumor weight (est.), dose: 400.0 mg/kg/injection, schedule: Q07DX003 (ip), vehicle: saline, higher = larger tumour
# [7] = endpoint: median tumor weight (est.), dose: 25.0 mg/kg/injection, schedule: Q07DX002 (ip), vehicle: saline with Tween-80, higher = larger tumour
# [8] = endpoint: median tumor weight (est.), dose: 12.5 mg/kg/injection, schedule: Q07DX002 (ip), vehicle: Klucel (hydroxypropylcellulose) (HPC), higher = larger tumour
# [9] = endpoint: median tumor weight (est.), dose: 25.0 mg/kg/injection, schedule: Q07DX002 (ip), vehicle: Klucel (hydroxypropylcellulose) (HPC), higher = larger tumour
compound,measurement,setting,value
CN(C)CCCNc1c2ccccc2nc2cccc([N+](=O)[O-])c12,T/C,"endpoint: median tumor weight (est.), dose: 0.03 mg/kg/injection, schedule: Q07DX002 (ip), vehicle: saline, higher = larger tumour",112 % of control and 104 % of control
same,T/C,"endpoint: median tumor weight (est.), dose: 0.06 mg/kg/injection, schedule: Q07DX002 (ip), vehicle: saline, higher = larger tumour",116 % of control
same,T/C,"endpoint: median tumor weight (est.), dose: 0.06 mg/kg/injection, schedule: Q07DX003 (ip), vehicle: saline, higher = larger tumour",93 % of control
same,T/C,"endpoint: median tumor weight (est.), dose: 0.12 mg/kg/injection, schedule: Q07DX003 (ip), vehicle: saline, higher = larger tumour",98 % of control
same,T/C,"endpoint: median tumor weight (est.), dose: 0.25 mg/kg/injection, schedule: Q07DX003 (ip), vehicle: saline, higher = larger tumour",101 % of control
COc1ccc(-c2cc(=O)c3cccc(CC(=O)O)c3o2)cc1,T/C,[1],84 % of control
same,T/C,[2],113 % of control
Cc1c2c(ccc3ccccc32)c[n+]2ccccc12,T/C,"endpoint: median tumor weight (est.), dose: 3.12 mg/kg/injection, schedule: Q07DX002 (ip), vehicle: saline, higher = larger tumour",154 % of control
same,T/C,"endpoint: median tumor weight (est.), dose: 6.25 mg/kg/injection, schedule: Q07DX002 (ip), vehicle: saline, higher = larger tumour",118 % of control
same,T/C,"endpoint: median tumor weight (est.), dose: 12.5 mg/kg/injection, schedule: Q07DX002 (ip), vehicle: suspension in saline, higher = larger tumour",102 % of control
same,T/C,[3],107 % of control
same,T/C,"endpoint: median tumor weight (est.), dose: 25.0 mg/kg/injection, schedule: Q07DX002 (ip), vehicle: suspension in saline, higher = larger tumour",91 % of control
O=C(O)CC(NC(=O)CP(=O)(O)O)C(=O)O (stereo unspecified),T/C,[4],95 % of control
same,T/C,"endpoint: median tumor weight (est.), dose: 51.8 mg/kg/injection, schedule: Q01DX004 (ip), vehicle: saline, higher = larger tumour",102 % of control
same,T/C,"endpoint: median tumor weight (est.), dose: 86.4 mg/kg/injection, schedule: Q01DX004 (ip), vehicle: saline, higher = larger tumour",75 % of control
same,T/C,"endpoint: median tumor weight (est.), dose: 119.0 mg/kg/injection, schedule: Q01DX009 (ip), vehicle: saline, higher = larger tumour",34 % of control
same,T/C,"endpoint: median tumor weight (est.), dose: 144.0 mg/kg/injection, schedule: Q01DX004 (ip), vehicle: saline, higher = larger tumour",12 % of control
same,T/C,"endpoint: median tumor weight (est.), dose: 178.0 mg/kg/injection, schedule: Q01DX009 (ip), vehicle: saline, higher = larger tumour",12 % of control
same,T/C,"endpoint: median tumor weight (est.), dose: 180.0 mg/kg/injection, schedule: Q04DX004 (ip), vehicle: saline, higher = larger tumour",79 % of control
same,T/C,[5],115 % of control
same,T/C,"endpoint: median tumor weight (est.), dose: 240.0 mg/kg/injection, schedule: Q01DX004 (ip), vehicle: saline, higher = larger tumour",9 % of control
same,T/C,"endpoint: median tumor weight (est.), dose: 300.0 mg/kg/injection, schedule: Q04DX004 (ip), vehicle: saline, higher = larger tumour",75 % of control
same,T/C,"endpoint: median tumor weight (est.), dose: 370.0 mg/kg/injection, schedule: Q07DX003 (ip), vehicle: saline, higher = larger tumour",70 % of control
same,T/C,[6],75 % of control
same,T/C,"endpoint: median tumor weight (est.), dose: 500.0 mg/kg/injection, schedule: Q04DX004 (ip), vehicle: saline, higher = larger tumour",58 % of control
same,T/C,"endpoint: median tumor weight (est.), dose: 552.0 mg/kg/injection, schedule: Q07DX003 (ip), vehicle: saline, higher = larger tumour",40 % of control
same,T/C,"endpoint: median tumor weight (est.), dose: 800.0 mg/kg/injection, schedule: Q07DX003 (ip), vehicle: saline, higher = larger tumour",21 % of control
CC1CC2OC2/C=C\C=C\C(=O)Cc2c(Cl)c(O)cc(O)c2C(=O)O1 (stereo unspecified),T/C,"endpoint: median tumor weight (est.), dose: 30.0 mg/kg/injection, schedule: Q07DX002 (ip), vehicle: Klucel (hydroxypropylcellulose) (HPC), higher = larger tumour",72 % of control
same,T/C,"endpoint: median tumor weight (est.), dose: 60.0 mg/kg/injection, schedule: Q07DX002 (ip), vehicle: Klucel (hydroxypropylcellulose) (HPC), higher = larger tumour",74 % of control
same,T/C,"endpoint: median tumor weight (est.), dose: 120.0 mg/kg/injection, schedule: Q07DX002 (ip), vehicle: Klucel (hydroxypropylcellulose) (HPC), higher = larger tumour",105 % of control
CNNCc1ccc(C(=O)NC(C)C)cc1,T/C,[4],110 % of control
same,T/C,"endpoint: median tumor weight (est.), dose: 100.0 mg/kg/injection, schedule: Q07DX003 (ip), vehicle: saline, higher = larger tumour",123 % of control
same,T/C,[5],99 % of control
same,T/C,[6],35 % of control
COc1cccc2c1C(=O)c1c(O)c3c(c(O)c1C2=O)CC(O)(C(=O)CO)CC3OC1CC(N)C(O)C(C)O1 (stereo unspecified),T/C,"endpoint: median survival time, dose: 41.0 mg/kg/injection, schedule: Q07DX002 (iv), vehicle: saline, higher = longer survival",93 % of control
same,T/C,"endpoint: median survival time, dose: 64.0 mg/kg/injection, schedule: Q07DX002 (iv), vehicle: saline, higher = longer survival",104 % of control
same,T/C,"endpoint: median survival time, dose: 100.0 mg/kg/injection, schedule: Q07DX002 (iv), vehicle: saline, higher = longer survival",122 % of control
same,T/C,"endpoint: median survival time, dose: 155.0 mg/kg/injection, schedule: Q07DX002 (iv), vehicle: saline, higher = longer survival",124 % of control
same,T/C,"endpoint: median tumor weight (est.), dose: 6.25 mg/kg/injection, schedule: Q07DX002 (ip), vehicle: water, higher = larger tumour",110 % of control
same,T/C,"endpoint: median tumor weight (est.), dose: 12.5 mg/kg/injection, schedule: Q07DX002 (ip), vehicle: water, higher = larger tumour",100 % of control
same,T/C,"endpoint: median tumor weight (est.), dose: 20.25 mg/kg/injection, schedule: Q07DX002 (ip), vehicle: saline, higher = larger tumour",51 % of control
same,T/C,[3],81 % of control and 86 % of control
same,T/C,"endpoint: median tumor weight (est.), dose: 25.0 mg/kg/injection, schedule: Q07DX002 (ip), vehicle: water, higher = larger tumour",100 % of control
same,T/C,"endpoint: median tumor weight (est.), dose: 40.5 mg/kg/injection, schedule: Q07DX002 (ip), vehicle: saline, higher = larger tumour",123 % of control
same,T/C,"endpoint: median tumor weight (est.), dose: 81.0 mg/kg/injection, schedule: Q07DX002 (ip), vehicle: saline, higher = larger tumour",52 % of control
same,T/C,"endpoint: median tumor weight (est.), dose: 81.0 mg/kg/injection, schedule: Q07DX002 (ip), vehicle: water, higher = larger tumour",56 % of control
same,T/C,"endpoint: median tumor weight (est.), dose: 100.0 mg/kg/injection, schedule: Q07DX002 (ip), vehicle: water, higher = larger tumour",83 % of control
same,T/C,"endpoint: median tumor weight (est.), dose: 162.0 mg/kg/injection, schedule: Q07DX002 (ip), vehicle: saline, higher = larger tumour",44 % of control
same,T/C,"endpoint: median tumor weight (est.), dose: 200.0 mg/kg/injection, schedule: Q07DX002 (ip), vehicle: saline, higher = larger tumour",19 % of control
same,T/C,"endpoint: median tumor weight (est.), dose: 200.0 mg/kg/injection, schedule: Q07DX002 (ip), vehicle: water, higher = larger tumour",53 % of control
same,T/C,"endpoint: median tumor weight (est.), dose: 324.0 mg/kg/injection, schedule: Q07DX002 (ip), vehicle: saline, higher = larger tumour",14 % of control
N#Cc1c(N)[nH]c2ccc(Sc3ccccc3)cc12,T/C,"endpoint: median tumor weight (est.), dose: 12.5 mg/kg/injection, schedule: Q07DX002 (ip), vehicle: saline with Tween-80, higher = larger tumour",78 % of control
same,T/C,[7],97 % of control
same,T/C,"endpoint: median tumor weight (est.), dose: 50.0 mg/kg/injection, schedule: Q07DX002 (ip), vehicle: saline with Tween-80, higher = larger tumour",63 % of control
same,T/C,[1],73 % of control
C[N+](C)(C)c1cc2c(nn1)Nc1ccccc1S2,T/C,"endpoint: median tumor weight (est.), dose: 6.25 mg/kg/injection, schedule: Q07DX002 (ip), vehicle: Klucel (hydroxypropylcellulose) (HPC), higher = larger tumour",109 % of control
same,T/C,[8],122 % of control
same,T/C,[9],89 % of control and 90 % of control
same,T/C,"endpoint: median tumor weight (est.), dose: 50.0 mg/kg/injection, schedule: Q07DX002 (ip), vehicle: Klucel (hydroxypropylcellulose) (HPC), higher = larger tumour",97 % of control
same,T/C,"endpoint: median tumor weight (est.), dose: 100.0 mg/kg/injection, schedule: Q07DX002 (ip), vehicle: Klucel (hydroxypropylcellulose) (HPC), higher = larger tumour",89 % of control
O=C1C=C[C@H](O)[C@@]2(CO)O[C@@H]12,T/C,"endpoint: median tumor weight (est.), dose: 0.62 mg/kg/injection, schedule: Q07DX002 (ip), vehicle: saline with Tween-80, higher = larger tumour",104 % of control
same,T/C,"endpoint: median tumor weight (est.), dose: 1.25 mg/kg/injection, schedule: Q07DX002 (ip), vehicle: saline with Tween-80, higher = larger tumour",116 % of control
same,T/C,"endpoint: median tumor weight (est.), dose: 2.5 mg/kg/injection, schedule: Q07DX002 (ip), vehicle: saline with Tween-80, higher = larger tumour",69 % of control
same,T/C,"endpoint: median tumor weight (est.), dose: 5.0 mg/kg/injection, schedule: Q07DX002 (ip), vehicle: saline with Tween-80, higher = larger tumour",79 % of control
same,T/C,"endpoint: median tumor weight (est.), dose: 10.0 mg/kg/injection, schedule: Q07DX002 (ip), vehicle: saline with Tween-80, higher = larger tumour",97 % of control
Cc1cc2c(=O)c3ccccc3oc2c(C(=O)O)c1C,T/C,"endpoint: median tumor weight (est.), dose: 50.0 mg/kg/injection, schedule: Q07DX002 (ip), vehicle: sodium bicarbonate, higher = larger tumour",69 % of control
same,T/C,"endpoint: median tumor weight (est.), dose: 100.0 mg/kg/injection, schedule: Q07DX002 (ip), vehicle: sodium bicarbonate, higher = larger tumour",42 % of control
same,T/C,"endpoint: median tumor weight (est.), dose: 200.0 mg/kg/injection, schedule: Q07DX002 (ip), vehicle: sodium bicarbonate, higher = larger tumour",37 % of control
same,T/C,"endpoint: median tumor weight (est.), dose: 400.0 mg/kg/injection, schedule: Q07DX002 (ip), vehicle: sodium bicarbonate, higher = larger tumour",44 % of control
CSc1ncc2ncn(C3OC(CO)C(O)C3O)c2n1 (stereo unspecified),T/C,[9],194 % of control
same,T/C,"endpoint: median tumor weight (est.), dose: 400.0 mg/kg/injection, schedule: Q07DX002 (ip), vehicle: Klucel (hydroxypropylcellulose) (HPC), higher = larger tumour",56 % of control
N=C(N)c1ccc(/C=C/c2ccc(C(=N)N)cc2)cc1,T/C,[8],73 % of control
same,T/C,[9],114 % of control
same,T/C,"endpoint: median tumor weight (est.), dose: 36.0 mg/kg/injection, schedule: Q07DX002 (ip), vehicle: saline with Tween-80, higher = larger tumour",67 % of control
N#Cc1cn(C2OC(CO)C(O)C2O)c2ncnc(N)c12 (stereo unspecified),T/C,"endpoint: median tumor weight (est.), dose: 0.12 mg/kg/injection, schedule: Q07DX002 (ip), vehicle: saline, higher = larger tumour",91 % of control
same,T/C,"endpoint: median tumor weight (est.), dose: 0.25 mg/kg/injection, schedule: Q07DX002 (ip), vehicle: saline, higher = larger tumour",77 % of control
same,T/C,"endpoint: median tumor weight (est.), dose: 1.0 mg/kg/injection, schedule: Q07DX002 (ip), vehicle: saline, higher = larger tumour",86 % of control
same,T/C,"endpoint: median tumor weight (est.), dose: 2.0 mg/kg/injection, schedule: Q07DX002 (ip), vehicle: saline, higher = larger tumour",59 % of control
CCCN1COC(OCC)C(C)(C)C1 (stereo unspecified),T/C,[7],73 % of control
same,T/C,[1],68 % of control and 73 % of control
same,T/C,[2],77 % of control
